Measurements as given in ChEMBL document CHEMBL2384975, “Combination Therapy: JAK PI3K/mTOR. A Novel Approach for Cancer Treatment” (2013).

How the values were obtained:
Assay type in all cases: functional, BaF3
[1] = Anticancer activity against mouse BA/F3 cells expressing JAK2 V617F mutation allografted in Harlan SCID mouse assessed as increase in lifespan at 45 mg/kg, po by luciferase reporter gene assay relative to control
[2] = Anticancer activity against mouse BA/F3 cells expressing JAK2 V617F mutation allografted in Harlan SCID mouse assessed as mean survival days at 45 mg/kg, po by luciferase reporter gene assay (reference value: 16 days)
[3] = Anticancer activity against mouse BA/F3 cells expressing JAK2 V617F mutation allografted in Harlan SCID mouse assessed as mean survival days at 60 mg/kg, po by luciferase reporter gene assay (reference value: 16 days)
[4] = Anticancer activity against mouse BA/F3 cells expressing JAK2 V617F mutation allografted in Harlan SCID mouse assessed as increase in lifespan at 60 mg/kg, po by luciferase reporter gene assay relative to control

For `Cn1c(=O)n(-c2ccc(C(C)(C)C#N)cc2)c2c3cc(-c4cnc5ccccc5c4)ccc3ncc21` [DACTOLISIB], the Activity [1] was 42% and the MSD [2] was 24 days.
In the case of `N#CC[C@H](C1CCCC1)n1cc(-c2ncnc3[nH]ccc23)cn1` [RUXOLITINIB], the MSD [3] was 19 days and the Activity [4] was 19%.
